Results taken from patent US20200190151A1, “KV1.3-BLOCKING VENOM PEPTIDE VARIANTS AND RELATED USES” (The Scripps Research Institute, priority 2016, published 2020).
Entries after “also recorded” stand apart in the source; their conditions may differ. Where two headings read alike, the source gives them in different places.

Experiments:
Kv1.3 channel [1] = assay type: cell-based, human
Kv1.3 channel [2] = biological target: T1, Kv1.3 channel (Homo sapiens, UniProt P22001); assay: Whole-cell patch clamp electrophysiology, HEK293 Kv1.3 stable cells; assay type: cell-based
T1 construct: expressed in transfected cells
Protocol: (§1) The variegated region of each variant was extracted based on the known flanking sequences. The ratio between number of unique toxins and count of all reads represented the diversity of a selected library. Highly enriched variants versus those that were not enriched were chosen and their affinity to Kv1.3 were assessed and ranked. In general, the enrichment factor of a variant is positively correlated with its affinity to Kv1.3 (FIG. 4). […] To test the critical property of specificity, patch clamp analysis of S1-2 was also carried out on HEK293 cells expressing other Kv1 family members including Kv1.1 through Kv1.7 and the hERG channel.
(§2) Electrophysiology recording: HEKA EPC 10 USB patch clamp amplifier (from HEKA Elektronik, Germany) was used for the whole cell recording. A cover slip with abundant single HEK293 Kv1.3 stable cells on the surface was removed and placed into a continuously perfused (approximately 1-2 ml/minute) recording chamber mounted on an inverted microscope. The Kv1.3 current was recorded from single cell using standard whole cell recording techniques. The cell was voltage clamped at a holding potential of −80 mV. Outward potassium currents were measured using the whole-cell configuration of the patch clamp technique at a test potential of 40 mV from a holding potential of −80 mV. Current records were acquired at 2-5 KHz and filtered at 1-2 KHz. […]

Kv1.1 = biological target: T2, Kv1.1 (Homo sapiens, UniProt Q09470); assay: Patch clamp on HEK293 cells expressing Kv1.1; assay type: cell-based
T2 construct: expressed in transfected cells; host or cells: HEK293
Protocol: as §1, §2

Kv1.6 = biological target: T3, Kv1.6 (Homo sapiens, UniProt P17658); assay: Patch clamp on HEK293 cells expressing Kv1.6; assay type: cell-based
T3 construct: expressed in transfected cells; host or cells: HEK293
Protocol: as §1, §2

[3] = lentivirus encoding membrane tethered peptide

T1 sequence (P22001 whole entry): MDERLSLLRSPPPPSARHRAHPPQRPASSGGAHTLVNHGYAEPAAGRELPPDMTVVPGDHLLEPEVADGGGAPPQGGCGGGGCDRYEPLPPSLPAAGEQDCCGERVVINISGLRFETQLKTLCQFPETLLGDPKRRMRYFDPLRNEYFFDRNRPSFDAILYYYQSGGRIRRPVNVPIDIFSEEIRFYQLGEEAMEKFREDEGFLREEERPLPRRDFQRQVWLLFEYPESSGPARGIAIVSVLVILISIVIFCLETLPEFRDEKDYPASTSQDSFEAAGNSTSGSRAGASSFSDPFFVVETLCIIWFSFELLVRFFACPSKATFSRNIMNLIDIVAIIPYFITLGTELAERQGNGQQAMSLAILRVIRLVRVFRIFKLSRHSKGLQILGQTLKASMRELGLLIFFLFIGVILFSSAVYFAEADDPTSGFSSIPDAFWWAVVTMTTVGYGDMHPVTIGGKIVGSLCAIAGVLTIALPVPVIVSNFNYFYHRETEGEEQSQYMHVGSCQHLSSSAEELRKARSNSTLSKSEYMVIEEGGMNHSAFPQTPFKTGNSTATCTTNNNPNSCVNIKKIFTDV
Sequence of Kv1.3 channel (P22001 53-575 limits assumed): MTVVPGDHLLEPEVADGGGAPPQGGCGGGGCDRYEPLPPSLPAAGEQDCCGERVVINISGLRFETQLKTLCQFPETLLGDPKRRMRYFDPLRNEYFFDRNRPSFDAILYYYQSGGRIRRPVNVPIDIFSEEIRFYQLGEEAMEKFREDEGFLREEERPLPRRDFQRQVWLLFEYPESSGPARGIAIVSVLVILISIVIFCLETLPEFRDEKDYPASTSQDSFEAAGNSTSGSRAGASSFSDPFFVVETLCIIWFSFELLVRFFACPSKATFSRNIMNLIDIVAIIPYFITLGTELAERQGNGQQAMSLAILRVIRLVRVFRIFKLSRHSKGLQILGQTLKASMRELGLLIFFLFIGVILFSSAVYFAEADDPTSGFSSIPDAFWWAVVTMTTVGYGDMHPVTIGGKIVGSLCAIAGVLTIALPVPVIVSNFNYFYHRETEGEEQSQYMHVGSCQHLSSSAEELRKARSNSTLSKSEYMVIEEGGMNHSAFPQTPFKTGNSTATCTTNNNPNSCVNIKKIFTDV
T3 sequence (P17658 whole entry): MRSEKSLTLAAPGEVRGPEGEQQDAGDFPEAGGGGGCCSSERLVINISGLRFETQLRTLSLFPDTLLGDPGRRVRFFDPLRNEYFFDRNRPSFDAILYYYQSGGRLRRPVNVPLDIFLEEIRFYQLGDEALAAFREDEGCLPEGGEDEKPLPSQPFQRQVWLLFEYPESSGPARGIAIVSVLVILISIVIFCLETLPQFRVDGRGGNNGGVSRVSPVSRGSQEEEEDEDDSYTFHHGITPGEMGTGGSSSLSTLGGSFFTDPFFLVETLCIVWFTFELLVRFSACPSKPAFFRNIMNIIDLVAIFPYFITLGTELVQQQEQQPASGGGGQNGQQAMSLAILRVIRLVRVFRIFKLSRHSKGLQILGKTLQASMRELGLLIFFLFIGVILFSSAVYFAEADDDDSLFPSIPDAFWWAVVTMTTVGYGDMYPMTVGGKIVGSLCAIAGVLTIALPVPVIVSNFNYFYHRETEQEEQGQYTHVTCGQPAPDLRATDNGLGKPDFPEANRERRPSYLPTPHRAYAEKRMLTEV
T2 sequence (Q09470 whole entry): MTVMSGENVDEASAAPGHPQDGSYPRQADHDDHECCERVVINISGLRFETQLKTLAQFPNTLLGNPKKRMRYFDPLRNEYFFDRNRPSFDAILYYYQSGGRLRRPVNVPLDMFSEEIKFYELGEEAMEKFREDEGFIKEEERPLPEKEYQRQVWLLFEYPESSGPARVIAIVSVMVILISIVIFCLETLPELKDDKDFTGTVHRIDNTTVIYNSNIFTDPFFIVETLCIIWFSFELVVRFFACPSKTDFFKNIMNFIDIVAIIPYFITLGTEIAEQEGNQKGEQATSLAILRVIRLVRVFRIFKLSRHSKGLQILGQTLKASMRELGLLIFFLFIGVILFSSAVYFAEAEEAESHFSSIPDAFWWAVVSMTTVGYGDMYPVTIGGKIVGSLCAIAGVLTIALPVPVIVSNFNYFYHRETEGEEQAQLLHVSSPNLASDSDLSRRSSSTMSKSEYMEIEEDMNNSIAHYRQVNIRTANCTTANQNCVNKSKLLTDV

| Substance | Activation of tdTomato reporter in Kv1.3 reporter cells, in words (Kv1.3 channel [1]; [3]) | Block / inhibition of Kv1.3 channel, in words (Kv1.3 channel [2]) | further results |
| --- | --- | --- | --- |
| Anuroctoxin | stimulated the Kv1.3 reporter cells to express tdTomato fluorescent protein |  |  |
| CllTx1 (ITINVKCTSPQQCLRPCKDRFGQHAGGKCINGKCKCYP) |  | strongly blocked; also recorded: potently blocked |  |
| Exendin-4: GLP-1 receptor targeting peptide, negative control lentivirus | no activity |  |  |
| ShK | stimulated the Kv1.3 reporter cells to express tdTomato fluorescent protein | comparable inhibition | Effect on Kv1.1, in words (Kv1.1): comparable inhibition; Effect on Kv1.6, in words (Kv1.6): comparable inhibition |
| Vc1.1 |  |  | Activation of tdTomato reporter in Kv1.3 reporter cells, in words (Kv1.3 channel [1]): no activity |
